For this assay, the target named is T1, active p38 alpha enzyme (Upstate Biotechnology) (Homo sapiens, UniProt Q16539).
T1 construct: purchased Upstate Biotechnology
The experiment in a line: p38α biochemical assay (ATP turnover, luminescent detection, Cambrex PKlight). The conditions noted are these: p38α biochemical assay, Table 1 Biological Activity. The protocol: The p38α biochemical assay employed is based on measurement of total ATP turnover following enzyme incubation with substrate in the presence of ATP with the use of a luminescent detection reagent (Cambrex PKlight). The assays were performed in 1536-well white opaque plates.
The final volume was 7.5005 μL as prepared prepared from the addition of 5 ul of kinase reaction (p38 alpah+MapkapK2+ATP) with 0.0005 μL compound dissolved in DMSO, and 2.5 ul of the detection reagent. Assay buffer contains the following reagents to give final concentration in the assay: 200 mM Tris, 100 mM MgCl2, 1.5 mM EGTA, 4 mM CaCl2, 20 mM MOPS, 1 mM EDTA, 1% glycerol, 0.1% B-Mecaptoethanol, and 1 mg/ml BSA. Test compounds are pinned using proprietary pintool technology (Kalypsys, Inc) and delivered as […] amounts into the 5 ul mixture of active p38 alpha enzyme (Upstate Biotechnology) and MapkapK2 (Upstate Biotechnology) whole protein as a substrate for phosphorylation in the presence of 1.4 uM final concentration ATP. Reactions are incubated at 30C for 2 hours and detection reagent is added in 2.5 ul/well amounts. Assay is read using a Perkin Elmer Viewlux.

This is an account of results in patent US20060252807A1, “Novel ortho-terphenyl inhibitors of p38 kinase and methods of treating inflammatory disorders” (Kalypsys, Inc., priority 2005, published 2006).

Where only a bound is given, the exact number is not on record here.

A word on the IC50: it is the concentration that gives 50% inhibition. A lower IC50 goes with inhibition by little substance.

T1 sequence (Q16539 whole entry): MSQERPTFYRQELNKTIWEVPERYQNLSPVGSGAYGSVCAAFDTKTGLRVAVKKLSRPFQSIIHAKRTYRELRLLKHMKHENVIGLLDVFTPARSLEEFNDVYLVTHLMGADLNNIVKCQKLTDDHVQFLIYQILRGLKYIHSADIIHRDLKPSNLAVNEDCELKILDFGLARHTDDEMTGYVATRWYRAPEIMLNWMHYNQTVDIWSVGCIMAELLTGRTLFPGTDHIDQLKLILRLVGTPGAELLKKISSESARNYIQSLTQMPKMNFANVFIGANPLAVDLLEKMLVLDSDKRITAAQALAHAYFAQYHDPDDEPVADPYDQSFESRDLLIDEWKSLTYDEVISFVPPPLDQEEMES

With `CC(C)NC(=O)c1csc(-c2oc(CNC(=O)c3ccc(F)cc3)nc2-c2ccc(F)cc2)n1` [Example 126], the IC50 was greater than 1000 nM. As for `CC(C)NC(=O)c1csc(-c2oc(CNC(=O)c3cccc(F)c3)nc2-c2ccc(F)cc2)n1` [Example 127], the figure is greater than 1000 nM; as for `CCCCCCCC(=O)NCc1nc(-c2ccc(F)cc2)c(-c2nc(C(=O)NC(C)C)cs2)o1` [Example 128], no more than 1000 nM.

Molecule `CC(C)NC(=O)c1csc(-c2oc(CNC(=O)c3ccc(C#N)cc3)nc2-c2ccc(F)cc2)n1` [Example 129] registered an IC50 of no more than 1000 nM. `CC(C)NC(=O)c1csc(-c2oc(CNC(=O)c3cccc(C#N)c3)nc2-c2ccc(F)cc2)n1` [Example 130]: the IC50 is no more than 1000 nM. As for `CC(C)NC(=O)c1csc(-c2oc(CNC(=O)/C=C/c3ccccc3)nc2-c2ccc(F)cc2)n1` [Example 131], the figure is no more than 1000 nM; as for `CC(C)NC(=O)c1csc(-c2oc(CNC(=O)c3ccccc3C=O)nc2-c2ccc(F)cc2)n1` [Example 132], greater than 1000 nM. As for `CC(C)NC(=O)c1csc(-c2oc(CNC(=O)c3ccc(C=O)cc3)nc2-c2ccc(F)cc2)n1` [Example 133], the figure is no more than 1000 nM. As for `Cc1ccc(C(=O)NCc2nc(-c3ccc(F)cc3)c(-c3nc(C(=O)NC(C)C)cs3)o2)c(C)c1` [Example 134], the figure is greater than 1000 nM; as for `Cc1ccccc1CC(=O)NCc1nc(-c2ccc(F)cc2)c(-c2nc(C(=O)NC(C)C)cs2)o1` [Example 135], greater than 1000 nM. `Cc1cccc(C(=O)NCc2nc(-c3ccc(F)cc3)c(-c3nc(C(=O)NC(C)C)cs3)o2)c1C` [Example 136]: the IC50 is greater than 1000 nM. As for `Cc1ccc(C)c(C(=O)NCc2nc(-c3ccc(F)cc3)c(-c3nc(C(=O)NC(C)C)cs3)o2)c1` [Example 137], the figure is greater than 1000 nM; as for `Cc1cc(C)cc(C(=O)NCc2nc(-c3ccc(F)cc3)c(-c3nc(C(=O)NC(C)C)cs3)o2)c1` [Example 138], greater than 1000 nM. Molecule `Cc1ccc(C(=O)NCc2nc(-c3ccc(F)cc3)c(-c3nc(C(=O)NC(C)C)cs3)o2)cc1C` [Example 139] came in with a concentration for half-maximal inhibition (IC50) greater than 1000 nM.

`CCc1ccc(C(=O)NCc2nc(-c3ccc(F)cc3)c(-c3nc(C(=O)NC(C)C)cs3)o2)cc1` [Example 140] yielded a half-inhibitory concentration (IC50) greater than 1000 nM. As for `COc1ccc(C(=O)NCc2nc(-c3ccc(F)cc3)c(-c3nc(C(=O)NC(C)C)cs3)o2)cc1` [Example 141], the figure is greater than 1000 nM; as for `Cc1cccc(C(=O)NCc2nc(-c3ccc(F)cc3)c(-c3nc(C(=O)NC(C)C)cs3)o2)c1O` [Example 142], greater than 1000 nM. As for `CC(C)NC(=O)c1csc(-c2oc(CNC(=O)Cc3ccccc3O)nc2-c2ccc(F)cc2)n1` [Example 143], the figure is no more than 1000 nM. Turning to `CC(C)NC(=O)c1csc(-c2oc(CNC(=O)Cc3cccc(O)c3)nc2-c2ccc(F)cc2)n1` [Example 144], the IC50 was no more than 1000 nM.

`Cc1ccc(O)c(C(=O)NCc2nc(-c3ccc(F)cc3)c(-c3nc(C(=O)NC(C)C)cs3)o2)c1` [Example 145] had an IC50 greater than 1000 nM. As for `CC(C)NC(=O)c1csc(-c2oc(CNC(=O)c3cc(O)ccc3O)nc2-c2ccc(F)cc2)n1` [Example 146], the figure is no more than 1000 nM; as for `CC(C)NC(=O)c1csc(-c2oc(CNC(=O)c3cccc(O)c3O)nc2-c2ccc(F)cc2)n1` [Example 147], no more than 1000 nM; as for `CC(C)NC(=O)c1csc(-c2oc(CNC(=O)c3ccc(O)cc3O)nc2-c2ccc(F)cc2)n1` [Example 148], no more than 1000 nM.

In turn, `Cc1ccc(C(=O)NCc2nc(-c3ccc(F)cc3)c(-c3nc(C(=O)NC(C)C)cs3)o2)cc1F` [Example 149] returned an IC50 greater than 1000 nM. For the molecule `Cc1ccc(F)cc1C(=O)NCc1nc(-c2ccc(F)cc2)c(-c2nc(C(=O)NC(C)C)cs2)o1` [Example 150], the IC50 is no more than 1000 nM. As for `CC(C)NC(=O)c1csc(-c2oc(CNC(=O)c3ccccc3Cl)nc2-c2ccc(F)cc2)n1` [Example 151], the figure is no more than 1000 nM; as for `CC(C)NC(=O)c1csc(-c2oc(CNC(=O)c3ccc(Cl)nc3)nc2-c2ccc(F)cc2)n1` [Example 152], no more than 1000 nM. As for `CC(C)NC(=O)c1csc(-c2oc(CNC(=O)c3cccnc3Cl)nc2-c2ccc(F)cc2)n1` [Example 153], the figure is no more than 1000 nM. `CC(C)NC(=O)c1csc(-c2oc(CNC(=O)c3ccnc(Cl)c3)nc2-c2ccc(F)cc2)n1` [Example 154] gave an IC50 greater than 1000 nM. As for `CC(C)NC(=O)c1csc(-c2oc(CNC(=O)c3cc(Cl)ccn3)nc2-c2ccc(F)cc2)n1` [Example 155], the figure is greater than 1000 nM; as for `CC(C)NC(=O)c1csc(-c2oc(CNC(=O)c3ccncc3Cl)nc2-c2ccc(F)cc2)n1` [Example 156], no more than 1000 nM. As for `CC(C)NC(=O)c1csc(-c2oc(CNC(=O)c3c(F)cccc3F)nc2-c2ccc(F)cc2)n1` [Example 157], the figure is no more than 1000 nM; as for `CC(C)NC(=O)c1csc(-c2oc(CNC(=O)c3cccc(F)c3F)nc2-c2ccc(F)cc2)n1` [Example 158], no more than 1000 nM. As for `CC(C)NC(=O)c1csc(-c2oc(CNC(=O)c3ccc(F)cc3F)nc2-c2ccc(F)cc2)n1` [Example 159], the figure is no more than 1000 nM.

`CC(C)NC(=O)c1csc(-c2oc(CNC(=O)c3cc(F)cc(F)c3)nc2-c2ccc(F)cc2)n1` [Example 160] showed an IC50 greater than 1000 nM. On to `CC(C)NC(=O)c1csc(-c2oc(CNC(=O)c3ccc(F)c(F)c3)nc2-c2ccc(F)cc2)n1` [Example 161], for which the IC50 is greater than 1000 nM. Molecule `CC(CC(=O)NCc1nc(-c2ccc(F)cc2)c(-c2nc(C(=O)NC(C)C)cs2)o1)CC(C)(C)C` (stereo not shown) [Example 162] registered an IC50 greater than 1000 nM. `CC(C)NC(=O)c1csc(-c2oc(CNC(=O)c3cc4ccccc4o3)nc2-c2ccc(F)cc2)n1` [Example 163] came in with an IC50 greater than 1000 nM. As for `CC(C)NC(=O)c1csc(-c2oc(CNC(=O)C3CCc4ccccc43)nc2-c2ccc(F)cc2)n1` (stereo not shown) [Example 164], the figure is greater than 1000 nM. As for `CC(C)NC(=O)c1csc(-c2oc(CNC(=O)C(Cl)(Cl)Cl)nc2-c2ccc(F)cc2)n1` [Example 165], the figure is greater than 1000 nM. `CC(C)NC(=O)c1csc(-c2oc(CNC(=O)/C=C/c3ccccc3O)nc2-c2ccc(F)cc2)n1` [Example 166] displayed an IC50 of no more than 1000 nM. Molecule `CC(=O)c1ccc(C(=O)NCc2nc(-c3ccc(F)cc3)c(-c3nc(C(=O)NC(C)C)cs3)o2)cc1` [Example 167] registered an IC50 of no more than 1000 nM. As for `CC(C)NC(=O)c1csc(-c2oc(CNC(=O)/C=C/c3cccc(O)c3)nc2-c2ccc(F)cc2)n1` [Example 168], the figure is no more than 1000 nM; as for `CC(=O)c1cccc(C(=O)NCc2nc(-c3ccc(F)cc3)c(-c3nc(C(=O)NC(C)C)cs3)o2)c1` [Example 169], greater than 1000 nM.

Take `CC(=O)c1ccccc1C(=O)NCc1nc(-c2ccc(F)cc2)c(-c2nc(C(=O)NC(C)C)cs2)o1` [Example 170]: the 50% inhibitory concentration (IC50) is greater than 1000 nM.

In the case of `CC(C)NC(=O)c1csc(-c2oc(CNC(=O)c3ccc(C(C)C)cc3)nc2-c2ccc(F)cc2)n1` [Example 171], the IC50 is greater than 1000 nM. `Cc1ccccc1CCC(=O)NCc1nc(-c2ccc(F)cc2)c(-c2nc(C(=O)NC(C)C)cs2)o1` [Example 172] registered an IC50 greater than 1000 nM.

As to `Cc1cccc(CCC(=O)NCc2nc(-c3ccc(F)cc3)c(-c3nc(C(=O)NC(C)C)cs3)o2)c1` [Example 173], the IC50 was greater than 1000 nM. As for `CCC(C(=O)NCc1nc(-c2ccc(F)cc2)c(-c2nc(C(=O)NC(C)C)cs2)o1)c1ccccc1` (stereo not shown) [Example 174], the figure is greater than 1000 nM. As for `Cc1cc(C)c(C(=O)NCc2nc(-c3ccc(F)cc3)c(-c3nc(C(=O)NC(C)C)cs3)o2)c(C)c1` [Example 175], the figure is greater than 1000 nM. Consider `CCCc1ccc(C(=O)NCc2nc(-c3ccc(F)cc3)c(-c3nc(C(=O)NC(C)C)cs3)o2)cc1` [Example 176], for which the IC50 is greater than 1000 nM. As for `CC(C)NC(=O)c1csc(-c2oc(CNC(=O)c3ccc4c(c3)OCO4)nc2-c2ccc(F)cc2)n1` [Example 177], the figure is greater than 1000 nM; as for `CC(C)NC(=O)c1csc(-c2oc(CNC(=O)/C=C/c3ccccc3F)nc2-c2ccc(F)cc2)n1` [Example 178], no more than 1000 nM; as for `CCOc1ccccc1C(=O)NCc1nc(-c2ccc(F)cc2)c(-c2nc(C(=O)NC(C)C)cs2)o1` [Example 179], greater than 1000 nM.

As for `Cc1ccccc1OCC(=O)NCc1nc(-c2ccc(F)cc2)c(-c2nc(C(=O)NC(C)C)cs2)o1` [Example 180], the 50% inhibitory concentration (IC50) was greater than 1000 nM. As for `CC(C)NC(=O)c1csc(-c2oc(CNC(=O)CCc3ccccc3O)nc2-c2ccc(F)cc2)n1` [Example 181], the figure is no more than 1000 nM; as for `COc1ccccc1CC(=O)NCc1nc(-c2ccc(F)cc2)c(-c2nc(C(=O)NC(C)C)cs2)o1` [Example 182], no more than 1000 nM; as for `CC(C)NC(=O)c1csc(-c2oc(CNC(=O)C(C)c3ccc(O)cc3)nc2-c2ccc(F)cc2)n1` (stereo not shown) [Example 183], no more than 1000 nM. As for `CC(C)NC(=O)c1csc(-c2oc(CNC(=O)c3ccccc3[N+](=O)[O-])nc2-c2ccc(F)cc2)n1` [Example 184], the figure is no more than 1000 nM; as for `CC(C)NC(=O)c1csc(-c2oc(CNC(=O)c3cccc([N+](=O)[O-])c3)nc2-c2ccc(F)cc2)n1` [Example 185], greater than 1000 nM; as for `COc1cccc(O)c1C(=O)NCc1nc(-c2ccc(F)cc2)c(-c2nc(C(=O)NC(C)C)cs2)o1` [Example 186], greater than 1000 nM.
